Experimental data: ChEMBL document CHEMBL3885881, “DrugMatrix”

Species on record: Rattus norvegicus
Assay: DrugMatrix - Regimen: Daily Repeat
Type: toxicity, organism-based, Sprague-Dawley
Parameters: regimen Daily Repeat, gender Male, age 6-8 weeks
Conditions: in vivo, po, route oral GAVAGE, vehicle 100 % WATER; for ABSOLUTE BASOPHIL / ABSOLUTE EOSINOPHIL / ABSOLUTE LYMPHOCYTE / ABSOLUTE MONOCYTE / ABSOLUTE SEGMENTED NEUTROPHIL / BASOPHIL / EOSINOPHIL / ERYTHROCYTE COUNT / HEMATOCRIT / HEMOGLOBIN / LEUKOCYTE COUNT / LYMPHOCYTE / MEAN CORPUSCULAR HEMOGLOBIN / MEAN CORPUSCULAR HEMOGLOBIN CONCENTRATION / MONOCYTE / NEUTROPHIL / NUCLEATED RED BLOOD CELLS / PLATELET COUNT: tissue Blood; for ALANINE AMINOTRANSFERASE / ALBUMIN / ALKALINE PHOSPHATASE / ASPARTATE AMINOTRANSFERASE / BLOOD UREA NITROGEN / CARBON DIOXIDE / CHLORIDE / CHOLESTEROL / CREATINE PHOSPHOKINASE / CREATININE / GLUCOSE / LACTATE DEHYDROGENASE / LIPASE / PHOSPHORUS / POTASSIUM / SODIUM / TOTAL BILIRUBIN / TOTAL PROTEIN / URIC ACID: tissue Plasma
[1] = 0 mg/kg, 72 h, dose level Control, time 3 day
[2] = 0 mg/kg, 120 h, dose level Control, time 5 day
[3] = 50 mg/kg, 72 h, dose level Low, time 3 day

C[C@H](CS)C(=O)N1CCC[C@H]1C(=O)O [CAPTOPRIL] was tested, and the “ABSOLUTE BASOPHIL” value [1] was 0 CELLS/uL, the “ABSOLUTE EOSINOPHIL” value [1] was 0 CELLS/uL and the “ABSOLUTE LYMPHOCYTE” value [1] was 10386.33 CELLS/uL. The “ABSOLUTE MONOCYTE” value [1] was 88.5 CELLS/uL, the “ABSOLUTE SEGMENTED NEUTROPHIL” value [1] was 1008.5 CELLS/uL and the BASOPHIL [1] was 0%. For the same compound, the EOSINOPHIL [1] was 0%, the “ERYTHROCYTE COUNT” value [1] was 5.16 x10E6/uL and the HEMATOCRIT [1] was 32.43%. The HEMOGLOBIN [1] was 12.98 G/DL, the “LEUKOCYTE COUNT” value [1] was 11.48 x10E3/uL and the LYMPHOCYTE [1] was 92.33%. For the same compound, the “MEAN CORPUSCULAR HEMOGLOBIN” value [1] was 25.23 pg, the “MEAN CORPUSCULAR HEMOGLOBIN CONCENTRATION” value [1] was 40.08 G/DL and the MONOCYTE [1] was 0.67%. For the same compound, the NEUTROPHIL [1] was 7%, the “NUCLEATED RED BLOOD CELLS” value [1] was 0 /100WBC and the “PLATELET COUNT” value [1] was 1016.67 x10E3/uL. The “ALANINE AMINOTRANSFERASE” value [1] was 62.17 u/L, the ALBUMIN [1] was 3.95 G/DL and the “ALKALINE PHOSPHATASE” value [1] was 363.5 u/L. For the same compound, the “ASPARTATE AMINOTRANSFERASE” value [1] was 118 u/L, the “BLOOD UREA NITROGEN” value [1] was 14.5 mg/dL and the “CARBON DIOXIDE” value [1] was 22.83 mmol/L. The CHLORIDE [1] was 100.67 MEQ/L, the CHOLESTEROL [1] was 66 mg/dL and the “CREATINE PHOSPHOKINASE” value [1] was 1308.83 u/L. The CREATININE [1] was 0.22 mg/dL, the GLUCOSE [1] was 187.5 mg/dL and the “LACTATE DEHYDROGENASE” value [1] was 380.17 u/L. It also gave an LIPASE [1] of 16.17 u/L, a PHOSPHORUS [1] of 14.27 mg/dL and a POTASSIUM [1] of 6.8 MEQ/L. The SODIUM [1] was 142.53 MEQ/L, the “TOTAL BILIRUBIN” value [1] was 0.2 mg/dL and the “TOTAL PROTEIN” value [1] was 5.68 G/DL. For the same compound, the “URIC ACID” value [1] was 2.87 mg/dL, the “ABSOLUTE BASOPHIL” value [2] was 0 CELLS/uL and the “ABSOLUTE EOSINOPHIL” value [2] was 80 CELLS/uL. For the same compound, the “ABSOLUTE LYMPHOCYTE” value [2] was 13301.33 CELLS/uL, the “ABSOLUTE MONOCYTE” value [2] was 180.83 CELLS/uL and the “ABSOLUTE SEGMENTED NEUTROPHIL” value [2] was 1187.83 CELLS/uL. The BASOPHIL [2] was 0%, the EOSINOPHIL [2] was 0.5% and the “ERYTHROCYTE COUNT” value [2] was 5.54 x10E6/uL. The HEMATOCRIT [2] was 35.65%, the HEMOGLOBIN [2] was 14.22 G/DL and the “LEUKOCYTE COUNT” value [2] was 14.75 x10E3/uL. For the same compound, the LYMPHOCYTE [2] was 90.67%, the “MEAN CORPUSCULAR HEMOGLOBIN” value [2] was 25.65 pg and the “MEAN CORPUSCULAR HEMOGLOBIN CONCENTRATION” value [2] was 39.88 G/DL. The MONOCYTE [2] was 1%, the NEUTROPHIL [2] was 7.83% and the “NUCLEATED RED BLOOD CELLS” value [2] was 0.17 /100WBC. The “PLATELET COUNT” value [2] was 1285.33 x10E3/uL, the “ALANINE AMINOTRANSFERASE” value [2] was 51.67 u/L and the ALBUMIN [2] was 4.08 G/DL. For the same compound, the “ALKALINE PHOSPHATASE” value [2] was 391.5 u/L, the “ASPARTATE AMINOTRANSFERASE” value [2] was 99.5 u/L and the “BLOOD UREA NITROGEN” value [2] was 15.5 mg/dL. The “CARBON DIOXIDE” value [2] was 28.33 mmol/L, the CHLORIDE [2] was 101.83 MEQ/L and the CHOLESTEROL [2] was 67.83 mg/dL. The “CREATINE PHOSPHOKINASE” value [2] was 771.33 u/L, the CREATININE [2] was 0.23 mg/dL and the GLUCOSE [2] was 156.5 mg/dL. The “LACTATE DEHYDROGENASE” value [2] was 544.33 u/L, the LIPASE [2] was 10.17 u/L and the PHOSPHORUS [2] was 12.03 mg/dL. For the same compound, the POTASSIUM [2] was 6.81 MEQ/L, the SODIUM [2] was 144.13 MEQ/L and the “TOTAL BILIRUBIN” value [2] was 0.22 mg/dL. For the same compound, the “TOTAL PROTEIN” value [2] was 6 G/DL, the “URIC ACID” value [2] was 2.18 mg/dL and the “ABSOLUTE BASOPHIL” value [3] was 0 CELLS/uL. The “ABSOLUTE EOSINOPHIL” value [3] was 0 CELLS/uL, the “ABSOLUTE LYMPHOCYTE” value [3] was 12527.33 CELLS/uL and the “ABSOLUTE MONOCYTE” value [3] was 193.67 CELLS/uL. The “ABSOLUTE SEGMENTED NEUTROPHIL” value [3] was 645.67 CELLS/uL, the BASOPHIL [3] was 0% and the EOSINOPHIL [3] was 0%. The “ERYTHROCYTE COUNT” value [3] was 5.11 x10E6/uL, the HEMATOCRIT [3] was 32.47% and the HEMOGLOBIN [3] was 12.77 G/DL. For the same compound, the “LEUKOCYTE COUNT” value [3] was 13.37 x10E3/uL, the LYMPHOCYTE [3] was 93.67% and the “MEAN CORPUSCULAR HEMOGLOBIN” value [3] was 25 pg. For the same compound, the “MEAN CORPUSCULAR HEMOGLOBIN CONCENTRATION” value [3] was 39.33 G/DL, the MONOCYTE [3] was 1.33% and the NEUTROPHIL [3] was 5%. For the same compound, the “NUCLEATED RED BLOOD CELLS” value [3] was 0 /100WBC, the “PLATELET COUNT” value [3] was 1185.33 x10E3/uL and the “ALANINE AMINOTRANSFERASE” value [3] was 55.33 u/L. The ALBUMIN [3] was 4.23 G/DL, the “ALKALINE PHOSPHATASE” value [3] was 396.33 u/L and the “ASPARTATE AMINOTRANSFERASE” value [3] was 89.33 u/L. For the same compound, the “BLOOD UREA NITROGEN” value [3] was 15.33 mg/dL, the “CARBON DIOXIDE” value [3] was 24.67 mmol/L and the CHLORIDE [3] was 99.67 MEQ/L. For the same compound, the CHOLESTEROL [3] was 77.67 mg/dL, the “CREATINE PHOSPHOKINASE” value [3] was 344.67 u/L and the CREATININE [3] was 0.22 mg/dL. The GLUCOSE [3] was 154.67 mg/dL, the “LACTATE DEHYDROGENASE” value [3] was 230.67 u/L and the LIPASE [3] was 11.67 u/L. The PHOSPHORUS [3] was 12.57 mg/dL, the POTASSIUM [3] was 6.98 MEQ/L and the SODIUM [3] was 141.83 MEQ/L. The “TOTAL BILIRUBIN” value [3] was 0.2 mg/dL and the “TOTAL PROTEIN” value [3] was 5.87 G/DL.
